The record followed here is patent US20050209451A1, “Crystalline form of cefdinir” (priority 2002, published 2005).

Data set [1] in a line: dissolution tests in 0.07 N HCl. The following applies: after the first hour, compared with crystal A. It counts as physicochemical.
The nature of data set [2]: accelerated stability tests in comparison with crystal A. In kind it is physicochemical. The text has this: Cefdinir in the new crystalline form was subjected to accelerated stability tests in comparison with crystal A claimed in U.S. Pat. No. 4,935,507.

For the compound `C=CC1=C(C(=O)O)N2C(=O)[C@@H](NC(=O)/C(=N\O)c3csc(N)n3)[C@H]2SC1` [new crystal, cefdinir], the “solubility on prolonged dissolution treatment (final dissolved cefdinir value)” value is reported as “more soluble than crystal A” in data set [1] (listed as cefdinir in the new crystalline form) and “higher than that possible with crystal A” in data set [1] (listed as product obtained in this manner). In addition, the stability entry in data set [2] (compared with reference crystal A of U.S. Pat. No. 4,935,507) was “at least equal to that of the reference crystal A”; in data set [2] (compared with reference crystal A of U.S. Pat. No. 4,935,507, listed as product obtained in this manner), “high stability”.
